Measured values from US7402580B2, “Fused pyridazine derivative compounds and drugs containing these compounds as the active ingredient” (Ono Pharmaceutical Co., Ltd., priority 2002, dated 2008).

Biological target: T1, PARP (TREVIGEN) (Homo sapiens, UniProt P09874)
T1 construct: purchased TREVIGEN
Assay: Enzyme assay in vitro (PARP inhibitory activity, 3H-NAD incorporation)
Format: biochemical
Conditions: 50% inhibitory concentration, control (distilled water) = 100%; reaction 10 minutes at room temperature
Protocol: The below procedure was carried out with 96 well plate at room temperature. In a final volume of […], the reaction mixture contained each 10 μL of 500 mM Tris/HCl (pH 8.0, WAKO), 100 mM MgCl2, 50 mM dithiothreitol (sigma), 1 mg/mL activated DNA and 1 mM NAD (containing ^3H-NAD). The 10 μL of test compound was added to the reaction mixture and the reaction was started by addition of 10 μL of 0.1 U/μL PARP (TREVIGEN). The reaction was terminated at 10 minutes by addition of 100 μL of 20% trichloroacetic acid. Poly(ADP-ribose), which is the reaction product, was collected on a glass fiber filter (GF/C, PACKARD). The radioactivity was measured by topcount (PACKARD). Inhibitory activity of the compound was represented by 50% inhibitory concentration calculated as 100% of control (distilled water).

T1 sequence (P09874 whole entry): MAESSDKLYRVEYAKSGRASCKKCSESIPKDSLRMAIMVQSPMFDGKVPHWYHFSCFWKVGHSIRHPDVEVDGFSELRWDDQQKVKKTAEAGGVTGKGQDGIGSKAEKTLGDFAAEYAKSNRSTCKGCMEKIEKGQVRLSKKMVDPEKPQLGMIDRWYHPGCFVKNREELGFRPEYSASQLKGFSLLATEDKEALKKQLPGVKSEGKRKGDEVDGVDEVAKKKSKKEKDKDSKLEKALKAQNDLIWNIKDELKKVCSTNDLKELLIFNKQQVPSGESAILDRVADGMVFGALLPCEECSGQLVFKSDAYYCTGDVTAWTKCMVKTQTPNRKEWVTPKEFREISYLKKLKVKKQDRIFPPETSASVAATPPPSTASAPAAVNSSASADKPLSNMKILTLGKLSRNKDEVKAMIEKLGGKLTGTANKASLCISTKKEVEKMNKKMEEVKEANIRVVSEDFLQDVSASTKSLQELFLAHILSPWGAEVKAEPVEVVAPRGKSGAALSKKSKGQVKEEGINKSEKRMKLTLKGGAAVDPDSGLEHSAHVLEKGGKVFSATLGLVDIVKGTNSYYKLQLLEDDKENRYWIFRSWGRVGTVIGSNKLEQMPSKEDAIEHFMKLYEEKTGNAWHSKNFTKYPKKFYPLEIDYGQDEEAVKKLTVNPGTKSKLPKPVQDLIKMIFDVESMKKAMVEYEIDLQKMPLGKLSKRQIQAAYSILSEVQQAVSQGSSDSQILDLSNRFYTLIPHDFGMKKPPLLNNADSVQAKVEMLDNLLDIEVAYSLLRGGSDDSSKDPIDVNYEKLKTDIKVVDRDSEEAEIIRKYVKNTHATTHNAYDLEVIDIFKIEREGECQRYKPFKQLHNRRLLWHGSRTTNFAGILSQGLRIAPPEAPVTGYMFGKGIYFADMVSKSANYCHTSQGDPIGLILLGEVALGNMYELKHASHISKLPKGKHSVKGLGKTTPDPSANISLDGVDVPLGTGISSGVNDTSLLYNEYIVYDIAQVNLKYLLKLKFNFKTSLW

IC50	Compound
610 nM	Nc1cc(N)cc(C2=NNC(=O)C3CSCCN23)c1 (stereo not drawn) [6(9), 4-(3,5-diaminophenyl)-6,7,9,9a-tetrahydro[1,4]thiazino[4,3-d][1,2,4]triazin-1(2H)-one]
100 nM	Nc1cccc(-c2n[nH]c(=O)c3c2NCCC3)c1 [11(4), 8-(3-aminophenyl)-2,3,4,6-tetrahydropyrido[2,3-d]pyridazin-5(1H)-one]
290 nM	NCCNC(=O)Cc1n[nH]c(=O)c2c1CCCC2 [30(4), 4-(N-(2-aminoethyl)carbamoylmethyl)-5,6,7,8-tetrahydrophthalazin-1(2H)-one]
